Reference: patent publication US7390874B2 (Kuboyama Bio Ken, Inc., priority 2003, dated 2008)
Like-named read-outs stand apart in the source and are kept apart here. Ends that are not written are not given here.

Experiments:
[1] = Body weight gains of rats in the adjuvant-induced arthritis study; assay type: in vivo, male Sprague-Dawley rats
Description: (§1) Rats weighting between 150-200 g were purchased from Animal Technologies Ltd., Kent, Wash. They were male Sprague-Dawley rats. The animals were kept individually in stainless steel cages with free access to water and feed (Harlan Teklan Rodent Diet). The light cycle was maintained at 12 hours light and 12 hours dark. The temperature was maintained at 22° C.±3° C. with a relative humidity of 40 to 70%.
The test materials were given orally (by gavage) to each of 5 rats per treatment group once per day for 10 days. Administration of the test materials was initiated on the day of sensitization.
(§2) The left hind paw was measured just before sensitization and again on Day 10. The plantar edema inhibitory rate and the body weight gain rate was determined by comparison with the non-sensitized rat groups.

[2] = system: Adjuvant Induced Arthritis in Rats; assay: Adjuvant-induced arthritis model in rats (paw weight, inhibition of inflammation); assay type: in vivo, male Sprague-Dawley rats
Description: Adjuvant-induced arthritis responds to both steroids and non-steroids. The degree of inflammation will be assessed by measuring differences in foot weight and/or the foot volume.
as §1
[…] The test compound and hydrocortisone were given by gavage.
Male Sprague-Dawley rats (150-200 g) were sensitized by injecting Fruend's complete adjuvant (0.5% suspension of killed mycobacterium tuberculosis (H37RA, Difco, in mineral oil)). A 0.1 ml aliquot was administered intradermally at a plantar site on the right hind leg of each rat.
The test materials were given orally (by gavage) to each of 5 rats per treatment group once per day for 10 days. […]
as §2
The paw weights for each group were averaged. Anti-inflammatory activity was determined by comparing paw weights calculated as follows: […]

[3] = mice
Description: One tenth (0.1 ml) of the above suspension is inoculated into the left hind leg muscle (hamstring muscle mass) of each mouse. The inoculated mice are placed into one large cage and then randomly segregated into groups of five mice. The mice are housed in shoe box cages on wood shavings with free access to water and laboratory chow. The mice are weighed on the day of inoculation, on day 7, day 12, at time of sacrifice.

Row | Compound | Body Weight Gains of Rats ([1]; 10 mg/kg by gavage once per day for 10 days) | % Inhibition ([2]; 10 mg/kg by gavage once per day for 10 days, adjuvant-induced inflammation, rats) | Raw Paw Weight ([2]; rats sensitized with Freund's complete adjuvant, oral gavage once per day for 10 days, Day 10, dose for this column not stated) | Body Weight Gains of Rats ([1]; 1 mcg/kg by gavage once per day for 10 days) | Body Weight Gains of Rats ([1]; 10 mcg/kg by gavage once per day for 10 days) | weight loss (in words) ([1]; rats, 10 mcg/kg and 1 mcg/kg by gavage for 10 days) | Average Weight Gain ([3]; 1 mcg/kg dose by gavage for 11 days) | Average Weight Gain ([3]; 10 mcg/kg dose by gavage for 11 days) | weight gain associated with administration versus control (in words) ([3]; gavage for 11 days)
1 | C[C@]12CCC(=O)C=C1CC[C@@H]1[C@@H]2[C@@H](O)C[C@@]2(C)[C@H]1CC[C@]2(O)C(=O)CO [Hydrocortisone] | 22.2 | 95.6% | 0.69 g | – | – | – | – | – | –
2 | YGSRS [Peptide, tyrosine-glycine-serine-arginine-serine] | – | – | – | 40.1 | 39.4 | without inducing weight loss | 1.85 g | 1.87 g | comparable to the control
